# Data from publication PMC12010006, “Subnanomolar MAS-related G protein-coupled receptor-X2/B2 antagonists with efficacy in human mast cells and disease models” (Signal Transduction and Targeted Therapy, 2025).
# Legend:
# MRGPRX2 = target: T1, MRGPRX2 (Homo sapiens, UniProt Q96LB1); test: Degranulation (β-hexosaminidase release), RBL-MRGPRX2 cells; type: cell-based
# T1 sequence (Q96LB1 1-330): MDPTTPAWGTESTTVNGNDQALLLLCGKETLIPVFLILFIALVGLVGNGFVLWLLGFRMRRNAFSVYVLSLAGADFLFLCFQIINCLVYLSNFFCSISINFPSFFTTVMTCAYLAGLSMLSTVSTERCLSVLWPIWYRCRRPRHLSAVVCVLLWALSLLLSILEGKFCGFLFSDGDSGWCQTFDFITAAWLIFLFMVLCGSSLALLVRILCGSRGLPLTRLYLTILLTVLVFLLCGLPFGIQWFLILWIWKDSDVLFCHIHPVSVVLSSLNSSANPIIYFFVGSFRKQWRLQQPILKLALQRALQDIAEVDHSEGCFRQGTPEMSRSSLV
# Protocol: (§1) Having a competitive MRGPRX2 antagonist with subnanomolar potency in hand, we next studied its effects on MCs. Activation of MRGPRX2, which is highly expressed in skin MCs, results in degranulation and histamine release.[19] We therefore investigated whether PSB-172656 inhibits MRGPRX2-mediated MC activation utilizing the rat MC line RBL-2H3 recombinantly expressing the human MRGPRX2 (designated RBL-MRGPRX2). These cells were treated with two different concentrations of PSB-172656 (100 nM and 300 nM), and then exposed to different MRGPRX2 agonists, namely C48/80 (0.3 µg/mL), SP (0.3 µM), and PAMP-12 (0.1 µM), respectively. Degranulation of the cells was assayed by β-hexosaminidase release measurements.
# (§2) Fig. 5 PSB-172656 blocks MRGPRX2-induced mast cell degranulation without affecting IgE-mediated responses. a RBL-MRGPRX2 cells were incubated with control (vehicle) or preincubated with PSB-172656 (100 or 300 nM), followed by stimulation with C48/80 (0.3 µg/mL), substance P (SP; 0.3 µM), or PAMP-12 (0.1 µM), and β-hexosaminidase release was measured. RBL-MRGPRX2 cells were sensitized with monoclonal anti-dinitrophenyl antibody (DNP-specific IgE), and degranulation induced by 2,4-dinitrophenylated bovine serum albumin (DNP-BSA, 10 and 30 ng/mL) was measured without or after preincubation with PSB-172656 (0.1 and 0.3 µM). […] Data are expressed as means ± SEM of 3 biological replicates. Statistical significance was determined by two-way ANOVA (Tukey’s multiple comparisons)
# Rat basophilic leukemia (RBL-2H3) cells that stably expressed the human MGPRGX2 (RBL-MRGPRX2) were grown in Dulbecco’s modified Eagle’s medium (DMEM) supplemented with 10% FBS, L-glutamine (2 mM), penicillin (100 IU/mL), and streptomycin (100 µg/mL).[42]
# Degranulation as determined by β-hexosaminidase release was performed as described previously.[66],[67] Briefly, RBL-MRGPRX2 cells (5 × 10^4 cells/well) were seeded into 96-well cell culture plates. After 16 h, cells were treated with PSB-172656 or solvent for 5 min in HEPES buffer containing 0.1% bovine serum albumin (BSA), and then activated with MRGPRX2 agonist (C48/80, SP, PAMP-12, or LL-37) for 30 min at 37 °C. For measurement of total β-hexosaminidase content, unstimulated cells were lyzed by Triton X-100 (0.1%). Aliquots (20 µL) of supernatant were incubated with 20 µL of 1 mM 4-nitrophenyl-N-acetyl-β-D-glucosaminide (PNAG) for 1 h at 37°C. Finally, the reaction was stopped by adding 250 µL of 0.1 M Na2CO3/0.1 M NaHCO3 buffer, and absorbance was determined with a Versamax microplate spectrophotometer (Molecular Devices, San José, CA) at a wavelength of 405 nm. The degranulation was quantitated as a percentage of β-hexosaminidase release by dividing the β-hexosaminidase in the sample by the total enzyme content. To test the antigen response, RBL-MRGPRX2 (5 × 10^4 cells/well) cells were sensitized with DNP-specific mouse IgE (SPE-7; 1 µg/mL). After 16 h, cells were preincubated in the absence or presence of respective concentrations of PSB-172656 for 5 min, followed by the stimulation of antigen (DNP-BSA, 10 and 30 ng/mL), and the degranulation was measured as described above. For degranulation in LAD2 cells, 1 × 10^4 cells/well were seeded into 96-well cell culture plates, incubated with or without PSB-172656 for 5 min, then with the MRGPRX2 agonist SP for 30 min, and degranulation was measured similarly.
# [1] = system: IgE-mediated degranulation; test: IgE-mediated degranulation (DNP-BSA) of RBL-MRGPRX2 cells sensitized with DNP-specific IgE; type: cell-based, rat; settings: 0.1 and 0.3 µM; DNP-BSA 10 and 30 ng/mL
# Protocol: as §1
# as §2, with “Statistical significance was determined by two-way ANOVA (Tukey’s multiple comparisons)” left out
# C3a-induced response = test: Surface expression of CD107a and CD63 (flow cytometry), LAD2 cells activated with C3a; type: cell-based, human; settings: 30 nM; C3a 3 nM
# Protocol: The granule-associated proteins CD107a and CD63 externalize in the process of degranulation. Their quantification by flow cytometry is a reliable marker of mast cell activation, which is often used for the diagnosis of allergies and anaphylaxis in mast cell activation tests.[49],[50] Thus, the expression of CD107a and CD63 on the cell surface was determined to confirm the effects of PSB-172656 on SP-induced MRGPRX2-mediated degranulation. […] In addition to MRPGRX2, LAD2 cells also express a GPCR that is specifically activated by the complement component C3a.[51] Both receptors can activate Gαi/o proteins to promote MC activation.[48],[52]
# MC degranulation was also measured by determining the cell surface expression of CD107a (Lysosomal-Associated Membrane Protein-1, LAMP-1) and CD63 (LAMP-3) after agonist stimulation.[48] LAD2 cells were preincubated with PSB-172656 or vehicle control for 5 min at 37 °C, then activated with SP (0.3 μM) and or C3a (3 nM) for 5 min at 37 °C. After 5 min of incubation, cells were fixed with 500 µL of 4% fixation buffer (Biolegend, Catalog 420801) for 15 min at room temperature. […] Cell surface expression of CD107a and CD63 was measured from the zombie-yellow negative population by a BD LSR II flow cytometer (San Jose, CA, USA) and analyzed by FlowJo software version 10.7.2 (Tree Star Inc., Ashland, OR, USA).[48],[50]
# [2] = Metabolic stability in human liver microsomes; type: in vitro ADME; settings: human liver microsomes 0.25 mg/ml, compound 1 µM
smiles,measurement,setting,value
"CCc1c(C(C)C)[nH]c2nc3cc(F)c(F)cc3n2c1=O [Compound 24, 3-ethyl-7,8-difluoro-2-isopropylbenzo[4,5]imidazo [1,2-a] pyrimidin-4(1H)-one]",effect on MC degranulation in response to C48/80,"MRGPRX2; 100 nM and 300 nM, C48/80 0.3 µg/mL",completely abolished
same,effect on MC degranulation in response to PAMP-12,"MRGPRX2; 100 nM and 300 nM, PAMP-12 0.1 µM",substantially inhibited
same,effect on MC degranulation in response to SP,"MRGPRX2; 100 nM and 300 nM, SP 0.3 µM",completely abolished
same,IC50,MRGPRX2; versus C48/80 (0.3 µg/mL),3.79 nM
same,IC50,MRGPRX2; versus LL-37 (3 µM),8.12 nM
same,IC50,MRGPRX2; versus PAMP-12 (0.1 µM),11.7 nM
same,IC50,MRGPRX2; versus SP (0.3 µM),15.5 nM
same,effect on IgE-mediated degranulation induced by DNP-BSA,[1],did not inhibit
same,effect on C3a-induced expression of CD107a and CD63,C3a-induced response,did not affect
same,half-life at 1 µM,"[2]; both sexes, human, liver microsomes, read-out: T1/2 (half-life)",1.53 h
same,microsomal CLint at 1 µM,"[2]; both sexes, read-out: Clint (intrinsic clearance)",15 µL/min/mg
same,T1/2 (half-life),[2],1.54 h
same,T1/2 (half-life),[2]; listed as PSB-172656,> 1.5 h
